Measured values: US5498632A, “Esters of acyl carnitines with long-chain aliphatic alcohols and pharmaceutical compositions containing same having antibacterial activity” (Sigma-Tau Industrie Farmaceutiche Riunite S.p.A., priority 1992, dated 1996)
Read-outs that look alike come from different tables or passages of the source.

Legend:
Type in all cases: cell-based
[1] = tested on: Staphylococcus aureus (303); assay: MIC in broth, Gram+ strains; conditions: S. aureus (303), Mueller-Hinton broth, 37° C., 18 hours, read-out: Minimal Inhibitory Concentration (MIC)
Method: (§1) Evaluation of the Minimal Inhibitory Concentration (MIC) in broth of 15 new substances for Gram+ bacterial strains.
(§2) The following strains were used: Staphylococcus aureus (4); Streptococcus faecalis (8); Bacillus pumilus (1); Bacillus subtilis (1).
(§3) MICs were determined by a standard microdilution test, using serial two-fold dilutions of the substances in Mueller-Hinton broth.
(§4) The inoculum was prepared from an overnight culture in Mueller-Hinton broth matching the 0.5 Mc Farland (turbidity) standard (BRAY W. E., Clinical Laboratory Methods, 5th Ed. C. V. MOSBY, St. Louis, Mo. 1957), and was adjusted to a final concentration of 5.0×10^4 colony-forming units/ml.
(§5) Equal volumes (0.1 ml) of both bacterial suspensions and substance solutions were distributed in microtiter plates (Falcon, 96 wells, round bottom), and then placed in a humidified incubator (37° C.) for 18 hours.
(§6) The results, in terms of MIC values, resistant strain number and mean MIC values versus susceptible strains, are illustrated in Tables 1-6.

[2] = tested on: Streptococcus faecalis (519); assay: MIC in broth, Gram+ strains; conditions: Enterococcus faecalis; S. faecalis (519), Mueller-Hinton broth, 37° C., 18 hours; read-out: Minimal Inhibitory Concentration (MIC)
Method: as §1, §2, §3, §4, §5, §6

[3] = tested on: Staphylococcus aureus (LC1); assay: MIC in broth, Gram+ strains; conditions: S. aureus (LC1), Mueller-Hinton broth, 37° C., 18 hours, read-out: Minimal Inhibitory Concentration (MIC)
Method: as §1, §2, §3, §4, §5, §6

[4] = tested on: Streptococcus faecalis (518); assay: MIC in broth, Gram+ strains; conditions: Enterococcus faecalis; S. faecalis (518), Mueller-Hinton broth, 37° C., 18 hours; read-out: Minimal Inhibitory Concentration (MIC)
Method: as §1, §2, §3, §4, §5, §6

Klebsiella oxytoca (552) = assay: MIC in broth, Gram- strains; conditions: 18 h, read-out: Minimal Inhibitory Concentration (MIC)
Method: as §3, §4, §5
(§7) Evaluation of the Minimal Inhibitory Concentration (MIC) in broth of 16 new substances for Gram- bacterial strains.
(§8) The following strains were used: Enterobacter (1), Escherichia (3), Klebsiella (3), Proteus (3); Pseudomonas (2); Salmonella (2), Serratia (1).

[5] = tested on: Salmonella typhimurium (D.S.); assay: MIC in broth, Gram- strains; conditions: Salmonella enterica, 18 h, read-out: Minimal Inhibitory Concentration (MIC)
Method: as §3, §4, §5, §7, §8

[6] = tested on: Pseudomonas aeruginosa (3 E); assay: MIC in broth, Gram- strains; conditions: 18 h, read-out: Minimal Inhibitory Concentration (MIC)
Method: as §3, §4, §5, §7, §8

Escherichia coli (76 F) = assay: MIC in broth, Gram- strains; conditions: 18 h, E. coli (76 F), read-out: Minimal Inhibitory Concentration (MIC)
Method: as §3, §4, §5, §7, §8

Gram+ bacterial strains = assay: Mean MIC in broth and resistant strain number, Gram+ strains; conditions: 18 h, versus susceptible strains
Method: as §1, §2, §3, §4, §5, §6

Gram- bacterial strains = assay: Mean MIC in broth and resistant strain number, Gram- strains; conditions: 18 h, read-out: Mean MIC values
Method: as §3, §4, §5, §7, §8

[7] = tested on: Staphylococcus aureus (ATCC 14154); assay: MIC in broth, Gram+ strains; conditions: ATCC14154, S. aureus (ATCC 14154), Mueller-Hinton broth, 37° C., 18 hours, read-out: Minimal Inhibitory Concentration (MIC)
Method: as §1, §2, §3, §4, §5, §6

[8] = tested on: Staphylococcus aureus (306 MR); assay: MIC in broth, Gram+ strains; conditions: S. aureus (306 MR), Mueller-Hinton broth, 37° C., 18 hours, read-out: Minimal Inhibitory Concentration (MIC)
Method: as §1, §2, §3, §4, §5, §6

[9] = tested on: Streptococcus faecalis (R 2); assay: MIC in broth, Gram+ strains; conditions: Enterococcus faecalis; S. faecalis (R 2), Mueller-Hinton broth, 37° C., 18 hours; read-out: Minimal Inhibitory Concentration (MIC)
Method: as §1, §2, §3, §4, §5, §6

[10] = tested on: Bacillus pumilus (CN 607); assay: MIC in broth, Gram+ strains; conditions: B. pumilus (CN 607), Mueller-Hinton broth, 37° C., 18 hours, read-out: Minimal Inhibitory Concentration (MIC)
Method: as §1, §2, §3, §4, §5, §6

[11] = tested on: Streptococcus faecalis (501); assay: MIC in broth, Gram+ strains; conditions: Enterococcus faecalis; S. faecalis (501), Mueller-Hinton broth, 37° C., 18 hours; read-out: Minimal Inhibitory Concentration (MIC)
Method: as §1, §2, §3, §4, §5, §6

[12] = tested on: Streptococcus faecalis (UM); assay: MIC in broth, Gram+ strains; conditions: Enterococcus faecalis; S. faecalis (UM), Mueller-Hinton broth, 37° C., 18 hours; read-out: Minimal Inhibitory Concentration (MIC)
Method: as §1, §2, §3, §4, §5, §6

[13] = tested on: Bacillus subtilis (ATCC 6051); assay: MIC in broth, Gram+ strains; conditions: ATCC6051, B. subtilis (ATCC 6051), Mueller-Hinton broth, 37° C., 18 hours, read-out: Minimal Inhibitory Concentration (MIC)
Method: as §1, §2, §3, §4, §5, §6

[14] = tested on: Streptococcus faecalis (509); assay: MIC in broth, Gram+ strains; conditions: Enterococcus faecalis; S. faecalis (509), Mueller-Hinton broth, 37° C., 18 hours; read-out: Minimal Inhibitory Concentration (MIC)
Method: as §1, §2, §3, §4, §5, §6

[15] = tested on: Streptococcus faecalis (516); assay: MIC in broth, Gram+ strains; conditions: Enterococcus faecalis; S. faecalis (516), Mueller-Hinton broth, 37° C., 18 hours; read-out: Minimal Inhibitory Concentration (MIC)
Method: as §1, §2, §3, §4, §5, §6

[16] = tested on: Streptococcus faecalis (505); assay: MIC in broth, Gram+ strains; conditions: Enterococcus faecalis; S. faecalis (505), Mueller-Hinton broth, 37° C., 18 hours; read-out: Minimal Inhibitory Concentration (MIC)
Method: as §1, §2, §3, §4, §5, §6

Escherichia coli (92 F) = assay: MIC in broth, Gram- strains; conditions: 18 h, E. coli (92 F), read-out: Minimal Inhibitory Concentration (MIC)
Method: as §3, §4, §5, §7, §8

[17] = tested on: Enterobacter aerogenes (UM); assay: MIC in broth, Gram- strains; conditions: Klebsiella aerogenes, 18 h, read-out: Minimal Inhibitory Concentration (MIC)
Method: as §3, §4, §5, §7, §8

Proteus vulgaris (UM) = assay: MIC in broth, Gram- strains; conditions: 18 h, read-out: Minimal Inhibitory Concentration (MIC)
Method: as §3, §4, §5, §7, §8

[18] = Gram- strains, versus susceptible strains

SMILES | MIC [1] | MIC [2] | MIC [3] | MIC [4] | MIC (Klebsiella oxytoca (552)) | MIC [5] | MIC [6] | MIC (Escherichia coli (76 F)) | MIC (Gram+ bacterial strains) | MIC (Gram- bacterial strains; [18]) | MIC [7] | MIC [8] | MIC (Gram- bacterial strains) | MIC [10] | MIC [11] | MIC [13] | MIC [14] | MIC (Escherichia coli (92 F)) | MIC [17] | MIC (Proteus vulgaris (UM)) | also measured
CCCCCCCCCCCOC(=O)CC(C[N+](C)(C)C)OC(=O)CCCCCCCCCC (centres unmarked) [ST 982] | > 100 µg/mL | 3.12 µg/mL | 3.12 µg/mL | 1.56 µg/mL | > 100 µg/mL | > 100 µg/mL | > 100 µg/mL | > 100 µg/mL | 2.6 µg/mL | > 100 µg/mL | – | – | – | – | – | – | – | – | – | – | –
CCCCCCCCCCCCCCCC(=O)OC(CC(=O)OCCCCCCCCCCC)C[N+](C)(C)C (centres unmarked) [ST 983] | > 100 µg/mL | > 100 µg/mL | > 100 µg/mL | > 100 µg/mL | > 100 µg/mL | > 100 µg/mL | > 100 µg/mL | > 100 µg/mL | > 100 µg/mL | > 100 µg/mL | – | – | – | – | – | – | – | – | – | – | –
CCCCCCCCCCCOC(=O)CC(C[N+](C)(C)C)OC(=O)CCCCCCC (centres unmarked) [ST 1000] | – | 3.12 µg/mL | 1.56 µg/mL | 3.12 µg/mL | > 100 µg/mL | > 100 µg/mL | > 100 µg/mL | > 100 µg/mL | 2.49 µg/mL | – | 1.56 µg/mL | 3.12 µg/mL | > 100 µg/mL | – | – | – | – | – | – | – | –
CCCCCCCCCCCCCCCCOC(=O)CC(C[N+](C)(C)C)OC(=O)CC(C)C (centres unmarked) [ST 1001] | 6.25 µg/mL | 3.12 µg/mL | 12.5 µg/mL | 3.12 µg/mL | – | > 100 µg/mL | > 100 µg/mL | – | 5.35 µg/mL | – | 6.25 µg/mL | 6.25 µg/mL | > 100 µg/mL | 6.25 µg/mL | 3.12 µg/mL | 12.5 µg/mL | 3.12 µg/mL | > 100 µg/mL | > 100 µg/mL | > 100 µg/mL | MIC [9]: 3.12 µg/mL; MIC [12]: 3.12 µg/mL; MIC [15]: 3.12 µg/mL; MIC [16]: 3.12 µg/mL
CCCCCCCCCCCCCOC(=O)CC(C[N+](C)(C)C)OC(=O)CC(C)C (centres unmarked) [ST 1033] | 3.12 µg/mL | 1.56 µg/mL | 1.56 µg/mL | 1.56 µg/mL | – | > 100 µg/mL | > 100 µg/mL | – | 2.11 µg/mL | 100 µg/mL | 3.12 µg/mL | 3.12 µg/mL | – | 1.56 µg/mL | 3.12 µg/mL | 3.12 µg/mL | 1.56 µg/mL | > 100 µg/mL | 100 µg/mL | > 100 µg/mL | MIC [9]: 1.56 µg/mL; MIC [12]: 1.56 µg/mL; MIC [15]: 1.56 µg/mL; MIC [16]: 1.56 µg/mL
CCCCCCCCCCCCOC(=O)CC(C[N+](C)(C)C)OC(=O)CC(C)C (centres unmarked) [ST 1037] | 3.12 µg/mL | 1.56 µg/mL | 3.12 µg/mL | 1.56 µg/mL | – | > 100 µg/mL | > 100 µg/mL | – | 2.34 µg/mL | 62.5 µg/mL | 3.12 µg/mL | 3.12 µg/mL | – | 1.56 µg/mL | 3.12 µg/mL | 3.12 µg/mL | 1.56 µg/mL | 100 µg/mL | 25 µg/mL | > 100 µg/mL | MIC [9]: 1.56 µg/mL; MIC [12]: 1.56 µg/mL; MIC [15]: 1.56 µg/mL; MIC [16]: 3.12 µg/mL
CCCCCCCCCCCCCOC(=O)CC(C[N+](C)(C)C)OC(=O)CCCCCC (centres unmarked) [ST 1050] | 6.25 µg/mL | – | – | – | > 100 µg/mL | – | > 100 µg/mL | – | 4.06 µg/mL | – | – | 6.25 µg/mL | > 100 µg/mL | 1.56 µg/mL | 3.12 µg/mL | – | 3.12 µg/mL | > 100 µg/mL | > 100 µg/mL | > 100 µg/mL | –
CCCCCCCCCCCCCOC(=O)CC(C[N+](C)(C)C)OC(=O)C(C)CCCC (centres unmarked) [ST 1051] | 6.25 µg/mL | – | – | – | > 100 µg/mL | – | > 100 µg/mL | – | 6.56 µg/mL | – | – | 12.5 µg/mL | > 100 µg/mL | 1.56 µg/mL | 6.25 µg/mL | – | 6.25 µg/mL | > 100 µg/mL | > 100 µg/mL | > 100 µg/mL | –
CCCCCCCCCCCCCOC(=O)CC(C[N+](C)(C)C)OC(=O)CCCCC (centres unmarked) [ST 1052] | 3.12 µg/mL | – | – | – | > 100 µg/mL | – | > 100 µg/mL | – | 2.49 µg/mL | – | – | 3.12 µg/mL | > 100 µg/mL | 1.56 µg/mL | 3.12 µg/mL | 3.12 µg/mL | 1.56 µg/mL | > 100 µg/mL | > 100 µg/mL | > 100 µg/mL | –
CCCCCCCCCCCCCOC(=O)CC(C[N+](C)(C)C)OC(=O)CCCCCCC (centres unmarked) [ST 1053] | 6.25 µg/mL | – | – | – | > 100 µg/mL | – | > 100 µg/mL | – | 4.37 µg/mL | – | – | 6.25 µg/mL | > 100 µg/mL | 1.56 µg/mL | 6.25 µg/mL | – | 1.56 µg/mL | > 100 µg/mL | > 100 µg/mL | > 100 µg/mL | –
